From US9738634B2, “Heterocyclic amide compound and herbicide” (SYNGENTA PARTICIPATIONS AG, priority 2013, dated 2017)

Columns and labels:
Assay type in all cases: in vivo
oval-leafed pondweed [1] = test: Test Example 2: weedkilling efficacy, growth period weed treatment in the submerged state; C: oval-leafed pondweed; details: treatment dosage 252 g/ha
Method in brief: (§1)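 First, alluvial soil in pots is flooded to 4 cm and mixed seed is sown. Next, plants grow in a greenhouse at 25 to 30° C until the 1-2 leaf stage. Then diluted emulsion is applied onto the water surface at the given g/ha rate, and injury is assessed after 3 weeks.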

birds-eye speedwell [2] = test: Test Example 4: weedkilling efficacy by foliar treatment; p: birds-eye speedwell; details: treatment dosage 315 g/ha
Method in brief: (§2)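 Seeds are spot-sown into sterilized diluvial soil and covered with about 1.5 cm of soil. After 14 days' greenhouse growth at 25 to 30° C, plants are sprayed on stems and leaves with diluted emulsion at the stated g/ha rate, then scored at 3 weeks.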

black-grass [3] = test: Test Example 3: weedkilling efficacy through soil treatment; H: black-grass; details: treatment dosage 315 g/ha
Method in brief: (§3)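 Crop and weed responses were judged three weeks after a uniform surface spray of the water-diluted emulsion at the given g/ha rate. Seeds sat beneath about 1.5 cm of sterilized diluvial soil, and boxes stood in a greenhouse at 25 to 30° C.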

wheat [4] = test: Test Example 4: foliar treatment, effect on crop; e: wheat; details: treatment dosage 315 g/ha
Method in brief: as §2

catchweed [5] = test: Test Example 4: weedkilling efficacy by foliar treatment; O: catchweed; details: treatment dosage 315 g/ha
Method in brief: as §2

chickweed [6] = test: Test Example 3: weedkilling efficacy through soil treatment; N: chickweed; details: treatment dosage 315 g/ha
Method in brief: as §3

corn [7] = test: Test Example 3: soil treatment, effect on crop; c: corn; details: treatment dosage 315 g/ha
Method in brief: as §3

corn [8] = test: Test Example 4: foliar treatment, effect on crop; c: corn; details: treatment dosage 315 g/ha
Method in brief: as §2

Indian mallow [9] = test: Test Example 4: weedkilling efficacy by foliar treatment; K: Indian mallow; details: treatment dosage 315 g/ha
Method in brief: as §2

Indian mallow [10] = test: Test Example 3: weedkilling efficacy through soil treatment; K: Indian mallow; details: treatment dosage 315 g/ha
Method in brief: as §3

barnyard grass [11] = test: Test Example 1: weedkilling efficacy, preemergent weed treatment in the submerged state; A: barnyard grass; details: treatment dosage 252 g/ha
Method in brief: (§4)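 Alluvial soil in Wagner pots flooded to 4 cm; barnyard grass, bulrush and oval-leafed pondweed seeds sown, then 2.5-leaf rice seedlings transplanted. Same day, emulsified compound diluted in water to set g/ha dosages and applied to water surface; greenhouse 25–30 °C, effect scored by criteria after 3 weeks.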

redroot pigweed [12] = test: Test Example 3: weedkilling efficacy through soil treatment; L: redroot pigweed; details: treatment dosage 315 g/ha
Method in brief: as §3

Italian ryegrass [13] = test: Test Example 4: weedkilling efficacy by foliar treatment; I: Italian ryegrass; details: treatment dosage 315 g/ha
Method in brief: as §2

chickweed [14] = test: Test Example 4: weedkilling efficacy by foliar treatment; N: chickweed; details: treatment dosage 315 g/ha
Method in brief: as §2

green foxtail [15] = test: Test Example 3: weedkilling efficacy through soil treatment; E: green foxtail; details: treatment dosage 315 g/ha
Method in brief: as §3

transplanted rice = test: Test Example 1: preemergent weed treatment in the submerged state, effect on crop; a: transplanted rice; details: treatment dosage 252 g/ha
Method in brief: as §4

wheat [16] = test: Test Example 3: soil treatment, effect on crop; e: wheat; details: treatment dosage 315 g/ha
Method in brief: as §3

fig-leafed goosefoot [17] = test: Test Example 3: weedkilling efficacy through soil treatment; M: fig-leafed goosefoot; details: treatment dosage 315 g/ha
Method in brief: as §3

catchweed [18] = test: Test Example 3: weedkilling efficacy through soil treatment; O: catchweed; details: treatment dosage 315 g/ha
Source text: Weedkilling Efficacy Test Through Soil Treatment
Sterilized diluvial soil was introduced into 21 cm long, 13 cm wide, 7 cm deep plastic boxes, and seeds of crabgrass, green foxtail, barnyard grass, wild oat, black-grass, Italian ryegrass, common wind-grass, Indian mallow, redroot pigweed, fig-leafed goosefoot, chickweed, catchweed, birds-eye speedwell, corn, soybean, rice, wheat, beet and rapeseed were each spot-sown, and covered with about 1.5 cm of soil. Next, emulsions of compounds of the present invention prepared according to compounding example 2 were diluted with water to give the specified dosages, and applied uniformly onto the soil surface with a small sprayer. The plants were grown by placing the plastic boxes in a greenhouse at 25 to 30° C., and 3 weeks after the pesticide treatment the effect on each type of plant was investigated on the basis of the assessment criteria of test example 1.
A: barnyard grass, B: bulrush, C: oval-leafed pondweed, D: crabgrass, E: green foxtail, F: barnyard grass, G: wild oat, H: black-grass, I: Italian ryegrass, J: common wind-grass, K: Indian mallow, L: redroot pigweed, M: fig-leafed goosefoot, N: chickweed, O: catchweed, p: birds-eye speedwell, a: transplanted rice, b: directly sown rice, c: corn, d: soybean, e: wheat, f: beet, g: rapeseed
Further, pesticide dosage (g/ha) indicates the concentration regulated such that treatment was with only the stated number of grams (g), when calculated per hectare (ha).

bulrush [19] = test: Test Example 2: weedkilling efficacy, growth period weed treatment in the submerged state; B: bulrush; details: treatment dosage 252 g/ha
Method in brief: as §1

soybean [20] = test: Test Example 3: soil treatment, effect on crop; d: soybean; details: treatment dosage 315 g/ha
Method in brief: as §3

redroot pigweed [21] = test: Test Example 4: weedkilling efficacy by foliar treatment; L: redroot pigweed; details: treatment dosage 315 g/ha
Method in brief: as §2

green foxtail [22] = test: Test Example 4: weedkilling efficacy by foliar treatment; E: green foxtail; details: treatment dosage 315 g/ha
Method in brief: as §2

barnyard grass [23] = test: Test Example 2: weedkilling efficacy, growth period weed treatment in the submerged state; A: barnyard grass; details: treatment dosage 252 g/ha
Method in brief: as §1

crabgrass [24] = test: Test Example 3: weedkilling efficacy through soil treatment; D: crabgrass; details: treatment dosage 315 g/ha
Method in brief: as §3

bulrush [25] = test: Test Example 1: weedkilling efficacy, preemergent weed treatment in the submerged state; B: bulrush; details: treatment dosage 252 g/ha
Method in brief: as §4

Italian ryegrass [26] = test: Test Example 3: weedkilling efficacy through soil treatment; I: Italian ryegrass; details: treatment dosage 315 g/ha
Method in brief: as §3

black-grass [27] = test: Test Example 4: weedkilling efficacy by foliar treatment; H: black-grass; details: treatment dosage 315 g/ha
Method in brief: as §2

fig-leafed goosefoot [28] = test: Test Example 4: weedkilling efficacy by foliar treatment; M: fig-leafed goosefoot; details: treatment dosage 315 g/ha
Method in brief: as §2

beet [29] = test: Test Example 4: foliar treatment, effect on crop; f: beet; details: treatment dosage 315 g/ha
Method in brief: as §2

soybean [30] = test: Test Example 4: foliar treatment, effect on crop; d: soybean; details: treatment dosage 315 g/ha
Method in brief: as §2

beet [31] = test: Test Example 3: soil treatment, effect on crop; f: beet; details: treatment dosage 315 g/ha
Method in brief: as §3

directly sown rice [32] = test: Test Example 3: soil treatment, effect on crop; b: directly sown rice; details: treatment dosage 315 g/ha
Method in brief: as §3

oval-leafed pondweed [33] = test: Test Example 1: weedkilling efficacy, preemergent weed treatment in the submerged state; C: oval-leafed pondweed; details: treatment dosage 252 g/ha
Method in brief: as §4

crabgrass [34] = test: Test Example 4: weedkilling efficacy by foliar treatment; D: crabgrass; details: treatment dosage 315 g/ha
Method in brief: as §2

directly sown rice [35] = test: Test Example 4: foliar treatment, effect on crop; b: directly sown rice; details: treatment dosage 315 g/ha
Method in brief: as §2

birds-eye speedwell [36] = test: Test Example 3: weedkilling efficacy through soil treatment; p: birds-eye speedwell; details: treatment dosage 315 g/ha
Method in brief: as §3

Compound: CSc1nsc(NC(=O)C(C)(C)N2COC(C)=C(c3ccccc3)C2=O)n1 [B-1-16]
- C (oval-leafed pondweed) weedkilling efficacy grade (oval-leafed pondweed [1]): 5 (weed kill ratio 90% or more, (practically complete withering))
- P (birds-eye speedwell) weedkilling efficacy grade (birds-eye speedwell [2]): 0 (weed kill ratio 5% or less (practically no effect))
- H (black-grass) weedkilling efficacy grade (black-grass [3]): 5 (weed kill ratio 90% or more, (practically complete withering))
- e (wheat) effect on crop grade (wheat [4]): 1 (weed kill ratio 5% or more, less than 20%)
- O (catchweed) weedkilling efficacy grade (catchweed [5]): 4 (weed kill ratio 70% or more, less than 90%)
- N (chickweed) weedkilling efficacy grade (chickweed [6]): 3 (weed kill ratio 40% or more, less than 70%)
- c (corn) effect on crop grade (corn [7]): 0 (weed kill ratio 5% or less (practically no effect))
- c (corn) effect on crop grade (corn [8]): 2 (weed kill ratio 20% or more, less than 40%)
- K (Indian mallow) weedkilling efficacy grade (Indian mallow [9]): 5 (weed kill ratio 90% or more, (practically complete withering))
- K (Indian mallow) weedkilling efficacy grade (Indian mallow [10]): 0 (weed kill ratio 5% or less (practically no effect))
- A (barnyard grass) weedkilling efficacy grade (barnyard grass [11]): 5 (weed kill ratio 90% or more, (practically complete withering))
- L (redroot pigweed) weedkilling efficacy grade (redroot pigweed [12]): 4 (weed kill ratio 70% or more, less than 90%)
- I (Italian ryegrass) weedkilling efficacy grade (Italian ryegrass [13]): 3 (weed kill ratio 40% or more, less than 70%)
- N (chickweed) weedkilling efficacy grade (chickweed [14]): 0 (weed kill ratio 5% or less (practically no effect))
- E (green foxtail) weedkilling efficacy grade (green foxtail [15]): 5 (weed kill ratio 90% or more, (practically complete withering))
- a (transplanted rice) effect on crop grade (transplanted rice): 2 (weed kill ratio 20% or more, less than 40%)
- e (wheat) effect on crop grade (wheat [16]): 5 (weed kill ratio 90% or more, (practically complete withering))
- M (fig-leafed goosefoot) weedkilling efficacy grade (fig-leafed goosefoot [17]): 4 (weed kill ratio 70% or more, less than 90%)
- O (catchweed) weedkilling efficacy grade (catchweed [18]): 5 (weed kill ratio 90% or more, (practically complete withering))
- B (bulrush) weedkilling efficacy grade (bulrush [19]): 5 (weed kill ratio 90% or more, (practically complete withering))
- d (soybean) effect on crop grade (soybean [20]): 0 (weed kill ratio 5% or less (practically no effect))
- L (redroot pigweed) weedkilling efficacy grade (redroot pigweed [21]): 4 (weed kill ratio 70% or more, less than 90%)
- E (green foxtail) weedkilling efficacy grade (green foxtail [22]): 5 (weed kill ratio 90% or more, (practically complete withering))
- A (barnyard grass) weedkilling efficacy grade (barnyard grass [23]): 5 (weed kill ratio 90% or more, (practically complete withering))
- D (crabgrass) weedkilling efficacy grade (crabgrass [24]): 5 (weed kill ratio 90% or more, (practically complete withering))
- B (bulrush) weedkilling efficacy grade (bulrush [25]): 5 (weed kill ratio 90% or more, (practically complete withering))
- I (Italian ryegrass) weedkilling efficacy grade (Italian ryegrass [26]): 4 (weed kill ratio 70% or more, less than 90%)
- H (black-grass) weedkilling efficacy grade (black-grass [27]): 5 (weed kill ratio 90% or more, (practically complete withering))
- M (fig-leafed goosefoot) weedkilling efficacy grade (fig-leafed goosefoot [28]): 3 (weed kill ratio 40% or more, less than 70%)
- f (beet) effect on crop grade (beet [29]): 1 (weed kill ratio 5% or more, less than 20%)
- d (soybean) effect on crop grade (soybean [30]): 3 (weed kill ratio 40% or more, less than 70%)
- f (beet) effect on crop grade (beet [31]): 0 (weed kill ratio 5% or less (practically no effect))
- b (directly sown rice) effect on crop grade (directly sown rice [32]): 3 (weed kill ratio 40% or more, less than 70%)
- C (oval-leafed pondweed) weedkilling efficacy grade (oval-leafed pondweed [33]): 5 (weed kill ratio 90% or more, (practically complete withering))
- D (crabgrass) weedkilling efficacy grade (crabgrass [34]): 5 (weed kill ratio 90% or more, (practically complete withering))
- b (directly sown rice) effect on crop grade (directly sown rice [35]): 4 (weed kill ratio 70% or more, less than 90%)
- P (birds-eye speedwell) weedkilling efficacy grade (birds-eye speedwell [36]): 4 (weed kill ratio 70% or more, less than 90%)
